The source of these data is patent US10159667B2, “Composition containing a DPP-IV inhibitor for preventing or treating renal diseases” (DONG-A ST CO., LTD, priority 2013, dated 2018).

Each structure is given as a SMILES string. Marks after values point to notes of the source that are not given here.

In assay [1] the test system is db/db mice. Description: Renal fibrosis: mRNA expression of TGF β1, Type IV collagen and PAI-1 by real-time PCR. Particulars: 12th week, relative to β-actin, FIG. 10.
The test system of assay [2] is db/db mice. Description: Renal nephrin expression by immunostaining. Particulars: FIG. 13. In kind it is in vivo. An excerpt:
Nephrin is a protein expressed on cell membrane of podocyte which forms glomerular filtration membrane. Nephrin forms a filtration barrier by binding to adjacent podocyte. When proteinuria incurs due to glomerular damage, nephrin barrier is damaged because nephrin expression in podocyte decreases, and accordingly, urinary excretion of nephrin increases. Therefore, urinary excretion of nephrin and nephrin expression in kidney in the non-diabetic control group, the diabetic group and the DA1229 administration group were observed. […] In addition, kidneys were isolated from each group; renal tissues were separated, immunostained with nephrin-specific antibody, and observed by using a microscope. Result is shown in right-hand side of FIG. 13. It is shown that observed nephrin was few in the diabetic group compared to the non-diabetic control group, but much in the DA1229 administration group.

Assay [3] relates to db/db mice. Description: Histological evaluation of renal mesangial expansion (PAS staining). It counts as in vivo. The conditions noted are these: 12th week of administration, FIG. 7. An excerpt:
Mesangial expansion incurs in kidney when renal destruction progresses in renal diseases. Therefore, glomerular mesangial expansion in the non-diabetic control group, the diabetic group and the DA1229 administration group was observed. […] Renal glomerular tissues were collected and sectioned by a microtome and embedded in paraffin after alcohol dehydration. The sections were stained by using PAS (periodic acid-Schiff); observed by using a microscope (STM6-LM Olympus NDT Inc, USA) (see FIG. 7B); and scored by a pathologist (see FIG. 7A.)

Assay [4] has as its system podocytes. Briefly: Nephrin expression in podocytes under glucose and angiotensin II stimuli (western blot). It counts as cell-based. The conditions noted are these: 10 nM, 72 hours, 30 mM glucose and 100 nM angiotensin II, FIG. 18. Here is the method:
Effects of DA1229, linagliptin, saxagliptin and sitagliptin on nephrin expression under stimuli of glucose and angiotensin II that are same to the stimulation occurring in diabetes were observed below.
Podocytes were cultured for 72 hours in media containing 30 mM of glucose, 100 nM of angiotensin II; and any one of 10 nM of DA1229, 10 nM of linagliptin, 1 nM of saxagliptin and 10 nM of sitagliptin. After that, the media were removed; cells were lysed; and changes of intracellularly expressed nephrin were measured through western blot by using polyclonal antibody (Santa Crúz, SC-19000.)

Assay [5] deals with db/db mice. Briefly: Renal fibrosis: immunohistochemistry of TGF β1, Type IV collagen and PAI-1. Particulars: 12th week. It counts as in vivo. An excerpt:
Renal glomerular tissues were collected and sectioned by a microtome and embedded in paraffin after alcohol dehydration. The sections were stained via immunohistochemistry; each of deposited TGF β1, Type IV collagen and PAI-1 in kidney was observed by using a microscope (STM6-LM Olympus NDT Inc, USA) (see FIG. 8); and degree and range of the staining were scored by a pathologist (see FIG. 9).

For assay [6], the system named is db/db mice. Description: Hepatic steatosis: H&E-stained liver sections. It counts as in vivo. The conditions noted are these: 12th week of administration, FIG. 5. An excerpt: Liver tissues collected from the non-diabetic control group, the diabetic group and the DA1229 administration group were sectioned by a microtome and embedded in paraffin after alcohol dehydration at 12th week of administration. These sections were stained by Hematoxylin-eosin, and then lipid deposition was observed by using a microscope (STM6-LM Olympus NDT Inc, USA) (see FIG. 5).

Assay [7] relates to db/db mice. Description: Urinary nephrin excretion by EIA, normalized by creatinine. Particulars: FIG. 13. It counts as in vivo. The text has this:
Nephrin is a protein expressed on cell membrane of podocyte which forms glomerular filtration membrane. Nephrin forms a filtration barrier by binding to adjacent podocyte. When proteinuria incurs due to glomerular damage, nephrin barrier is damaged because nephrin expression in podocyte decreases, and accordingly, urinary excretion of nephrin increases. Therefore, urinary excretion of nephrin and nephrin expression in kidney in the non-diabetic control group, the diabetic group and the DA1229 administration group were observed. […] It was then normalized by creatinine excretion, which is proportional to a volume of urination (measured by the modified Jaffe method) and shown in the left-hand side graph in FIG. 13.

In assay [8] the test system is db/db mice. Briefly: Blood lipid concentration in db/db mice. It counts as in vivo. Particulars: 12th week of administration, FIG. 4. Here is the method:
In diabetic patients, blood lipids are tend to be increased and lipids are tend to be deposited in liver (i.e. hepatic steatosis) due to failure of lipid metabolism. Following experiment has been conducted to confirm whether DA1229 improves lipid metabolism. […] Concentrations of lipids, that are total cholesterol, triglyceride, HDL-cholesterol and LDL-cholesterol, of plasma of the non-diabetic control group, the diabetic group and the DA1229 administration group were measured at 12th week of administration. Concentration of total cholesterol and triglyceride were measured by using a ELISA reader (Micro-Quant, Bio-Tek Instruments, Colmar, France) after using the GPO-Trinder kit (Sigma, St. Louis, Mo., USA); and HDL-cholesterol and LDL-cholesterol were measured by using a TBA-200FR NEO (Toshiba, Japan).

Assay [9] concerns non-diabetic renal disease mouse model. Briefly: Microalbuminuria and nephrin excretion in adriamycin (ADX) non-diabetic renal disease mouse model. In kind it is in vivo, mice. Particulars: for urinary excretion of albumin / urinary excretion of nephrin: ADX 13 mg/kg i.v. mice, vs control. Here is the method: Non-diabetic renal diseases occurs via induction of glomerular podocyte damage when injecting adriamycin (hereinafter, ADX) that is an anti-cancer agent. Thirty mice at the age of 6 weeks were divided into 3 groups (n=10/group) after single intravenous injection of 13 mg/kg of ADX. For the first group, the administration of DA1229 was initiated immediately and maintained while renal disease incurred and developed. For the second group, administration of DA1229 was performed 3 weeks after single ADX injection, for the purpose of administering DA1229 after renal disease was progressed to some degree. The third group was set as a control group without any additional action. DA1229 was administered as a mixture with diet at 0.3% (W/W, 300 mg/kg/day) to the first and second groups. Only feed was provided to the control group. Microalbuminuria and nephrin excretion of each group were measured at 5th week of administration.

Assay [10] relates to db/db mice. Briefly: Microalbuminuria: 24 h urinary albumin excretion by ELISA. It counts as in vivo. Particulars: FIG. 6. As to the method: When diabetes is progressed, phenomena of renal glomeruli destruction and protein (albumin) excretion incur, and microalbuminuria is directed to a case when the amount of the excretion is small. Microalbuminuria is one of the initial indices of renal diseases, and the gomeruli destruction becomes more severe as diabetes progresses. Accordingly the amount of protein excretion will increase. […] Microalbuminuria was observed by measuring the amount of urinary excretion of albumin during 24 hours in the non-diabetic control group, the diabetic group and the DA1229 administration group at week 0, 4, 8 and 12 of administration. The amount of albumin excretion was measured by using a ELISA reader (Micro-Quant, Bio-Tek Instruments, Colmar, France) after using the ELISA kit (Shibayagi, Shibukawa, Japan).

For assay [11], the system named is db/db mice. Briefly: Renal lipid metabolism: mRNA expression of ABCA1 and HMG-CoA reductase. In kind it is in vivo. The conditions noted are these: 12th week, FIGS. 11 and 12.
For assay [12], the system named is db/db mice. Description: Plasma creatinine by modified Jaffe method. In kind it is in vivo.
The test system of assay [13] is db/db mice. Briefly: Weight, food intake, water intake, fasting blood glucose, urine output, HbA1c and blood pressure in db/db mice. In kind it is in vivo. As to the method:
6-week old mice were used. db/m mice were set as the non-diabetic control group (7 for each stage, n=28), and divided db/db mice into the diabetic group (7 for each stage, n=28) and DA1229 administration group (n=8). 0.3% (W/W, 300 mg/kg/day) of DA1229, a DPP-IV inhibitor, was mixed with feed and provided to the DA1229 administration group while only feed was provided to the diabetic group. Weight, food intake, water intake, fasting blood glucose, urine output, hemoglobin A1c value (HbA1c) and blood pressure (i.e. systolic blood pressure, SBP) of the non-diabetic control group (db/m control group) and the diabetic group (db/db) were measured at week 0, 4, 8 and 12 of administration; and that of the DA1229 administration group were measured at week 12. HbA1c was measured by using the DCA 2000+ (Bayer Healthcare, Wuppertal, Germany) Analyzer.

[14] abbreviates: DA1229 0.3% W/W in feed (300 mg/kg/day), wk 12, mean ± SEM.
Where [15] appears, read: DA1229 administered for 12 weeks.

As to `CC(C)(C)OC[C@@H]1C(=O)NCCN1C(=O)C[C@H](N)Cc1cc(F)c(F)cc1F` [DA1229, (R)-4-{(R)-3-amino-4-(2,4,5-trifluorophenyl)butanoyl}-3-(t-butoxymethyl)piperazin-2-one], in assay [1], the “renal mRNA expression of PAI-1” value was “markedly decreased”, the “renal mRNA expression of TGF β1” value was “markedly decreased” and the “renal mRNA expression of Type IV collagen” value is listed as “markedly decreased”. Also, the “nephrin observed in renal tissue (immunostaining)” value in assay [2] was “much”. In [3], the glomerular mesangial expansion result is “improved to a level close to the non-diabetic control group”. Also, in assay [4], the “nephrin expression in podocytes” value is listed as “maintained equally to the control group”. Moreover, the “TGF β1 deposited in kidney (immunohistochemistry)” value in assay [5] (FIGS. 8A and 9) was “markedly decreased”. Besides, the “Type IV collagen deposited in kidney (immunohistochemistry)” value in assay [5] (FIGS. 8B and 9) is “decreased to the level of the non-diabetic control group”. The “PAI-1 deposited in kidney (immunohistochemistry)” value in assay [5] (FIGS. 8C and 9) is “decreased to the level of the non-diabetic control group”. Also, the “lipid deposition of liver tissues” value in assay [6] was “restored to the level of the non-diabetic control group”. Besides, the “content of nephrin in urine” value in [7] is reported as “markedly decreased”. Besides, in assay [8], the “plasma LDL-cholesterol concentration” value is “restored to the level of the non-diabetic control group”, the “plasma total cholesterol concentration” value is reported as “restored to the level of the non-diabetic control group” and the plasma triglyceride concentration entry is listed as “restored to the level of the non-diabetic control group”. Besides, the “urinary excretion of albumin” value in [9] (first group: DA1229 300 mg/kg/day started with induction of renal disease, FIG. 14A) is “significantly decreased”. In addition, in assay [9] (first group: DA1229 300 mg/kg/day started with induction of renal disease, FIG. 14B), the “urinary excretion of nephrin” value is recorded as “significantly decreased”. The “urinary excretion of albumin” value in [9] (second group: DA1229 300 mg/kg/day started 3 weeks after ADX, FIG. 15A) is listed as “significantly decreased”. In addition, in [9] (second group: DA1229 300 mg/kg/day started 3 weeks after ADX, FIG. 15B), the “urinary excretion of nephrin” value is “significantly decreased”. Further, in assay [9] (ADX mice, second group, FIG. 15), the “effect of decreasing albumin excretion over time” value is listed as “became more significant as time passed”. Also, in [10], the “microalbuminuria until 4th week” value was “not observed”. The “amount of urinary excretion of albumin after 4th week” value in [10] (vs diabetic group) was “much smaller than that of the diabetic group”. For the same compound, in assay [11], the “renal mRNA expression of ABCA1” value is reported as “markedly increased” and the “renal mRNA expression of HMG-CoA reductase” value was “decreased to the level of the non-diabetic control group”. For the same compound, in assay [12] (DA1229 300 mg/kg/day in feed, wk 12, ± SEM), the “Plasma Creatinine” value amounted to 29.0 ± 2.0 µmol/L. In assay [12] (wk 12), the “plasma creatinine compared to the diabetic group” value is “markedly decreased”. Moreover, in [13] (setting [14]), the “Daily Water Intake” value is recorded as 8.6 ± 0.4**^,# g, the Fasting Blood Glucose is 466 ± 66 mg/dL, the HbAlc is 8.58 ± 0.79 % and the “Urine Output” value turned out to be 1.07 ± 0.29 mL/day. In assay [13] (setting [15]), the “fasting blood glucose compared to the diabetic group” value is on record as “markedly decreased”, the “urine output compared to the diabetic group” value is recorded as “no significant differences” and the “water intake compared to the diabetic group” value is listed as “markedly decreased”.
In the case of `N[C@@H](CC(=O)N1CCn2c(nnc2C(F)(F)F)C1)Cc1cc(F)c(F)cc1F` [sitagliptin, reference compound], the “nephrin expression in podocytes” value in [4] is “almost no difference compared to the group treated only with glucose and angiotensin II”.
